Reference: article PMC12501277, “The deubiquitylase OTUB1 drives gemcitabine resistance in pancreatic cancer by enhancing pyrimidine metabolism through modulating DHODH mRNA stability” (Cell Death & Disease, 2025)

Biological target: T1, OTUB1 (Homo sapiens, UniProt Q96FW1)
T1 construct: Recombinant human OTUB1 protein (Abcam, ab157086)
Assay: SPR (Biacore 8K, OTUB1 immobilized on CM5 chip)
Type: binding

T1 sequence (Q96FW1 2-271): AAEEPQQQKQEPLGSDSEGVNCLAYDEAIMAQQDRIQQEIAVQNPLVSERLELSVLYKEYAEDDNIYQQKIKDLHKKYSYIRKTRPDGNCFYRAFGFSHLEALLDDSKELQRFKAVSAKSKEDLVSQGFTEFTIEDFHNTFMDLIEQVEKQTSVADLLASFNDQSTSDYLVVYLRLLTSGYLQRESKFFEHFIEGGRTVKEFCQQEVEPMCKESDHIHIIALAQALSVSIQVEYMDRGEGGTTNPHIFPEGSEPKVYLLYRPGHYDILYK

`COc1cc(NC(=O)CCN2CCC(OC(=O)Nc3ccccc3-c3ccccc3)CC2)c(Cl)cc1CNC[C@H](O)c1ccc(O)c2[nH]c(=O)ccc12` [Batefenterol] gave a Kd of 23.5 µM.
